The values below are quoted from earlier work in US20020040051A1, “Solid dispersion of ipriflavone for oral administration and its manufacturing methods” (priority 2000, published 2002).

In brackets after ≈: the same amount, converted by molar mass.

For data set [1] the following is noted: 200 mg 3-4 times daily (600-800 mg daily), healthy adult male (18-60 yr); cited from earlier work.
The conditions of data set [2]: cited from earlier work.

Turning to `CC(C)Oc1ccc2c(=O)c(-c3ccccc3)coc2c1` [compound 1, 3-phenyl-7-isopropoxy-4H-1-benzopyrane-4-one], in data set [1], the “day of administration on which blood concentration reaches an effective level” value is 3rd or 4th day. Further, the water solubility in data set [2] was 1 µg/mL (≈ 3.57 µM).
